Molecular target: GLP-1 Receptor (Homo sapiens, UniProt P43220)
Test: GLP-1R agonist cAMP stimulation assay (HEK293/GLP1R/CRE-LUC cells, cAMP dynamic 2 Kit)
Assay type: cell-based
Conditions: HEK293/CRE-Luc cell line stably expressing the GLP-1 Receptor, 30 min at 37° C.
Procedure: Activation of GLP-1 receptor is known to stimulate cyclic AMP (cAMP) production in cells which indicates primary coupling to the Gαs subunit of the G protein heterotrimeric complex. […] To optimize functional activity directed toward Gαs coupling, a HEK293/CRE-Luc cell line developed by HDB stably expressing the GLP-1 Receptor was used. 200×concentration of compound working solutions were prepared (Agilent Technologies Bravo) with 1/2 log serial dilution in 384-well Echo LDV plate (Labcyte, Cat #LP-0200). 50 nL/well 200× concentration of compound working solutions were moved to 384-well white low volume plate (Greiner,Cat #784075) using Labcyte ECHO550. 1×10^5 cells/mL HEK293/GLP1R/CRE-LUC(HD Biosciences) cell suspensions prepared with assay buffer[DPBS containing 0.5 mM IBMX(Sigma, Cat #15879) and 0.1% BSA (GENVIEW, Cat #FA016-100 g)], 10 uL cell suspensions were added to each well of previous generated assay plate which already contains 50 nl compound at 200×concentration using ThermoFisher Multidrop Combi (1000 cells/well). Seal the plate and incubate at 37° C. with 5% CO2 for 30 min. After incubation the cAMP assay signal was generated using cAMP dynamic 2 Kit (Cisbio). 5 μL cAMP-d2 working solution was added to each well, followed with 5 μL Anti-cAMP antibody-cryptate working solution added to each well using ThermoFisher Multidrop Combi. Incubate at room temperature for 1 hour protected from light.

Chain of GLP-1 Receptor (P43220 24-463, species assumed): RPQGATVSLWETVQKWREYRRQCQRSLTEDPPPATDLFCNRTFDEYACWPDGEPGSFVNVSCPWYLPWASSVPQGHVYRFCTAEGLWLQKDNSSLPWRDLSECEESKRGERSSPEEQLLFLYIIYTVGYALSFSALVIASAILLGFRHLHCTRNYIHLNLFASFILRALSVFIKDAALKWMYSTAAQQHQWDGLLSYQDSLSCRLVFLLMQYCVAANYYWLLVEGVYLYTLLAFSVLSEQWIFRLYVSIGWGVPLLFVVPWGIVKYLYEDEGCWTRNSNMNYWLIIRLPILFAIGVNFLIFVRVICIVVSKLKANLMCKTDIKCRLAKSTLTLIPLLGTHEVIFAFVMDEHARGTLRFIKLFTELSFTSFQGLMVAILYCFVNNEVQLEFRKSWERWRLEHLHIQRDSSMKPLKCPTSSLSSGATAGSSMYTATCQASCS

EC50 [nM] | Compound
0.3 | O=C(Nc1ccc2c(c1)nc(CN1CCC(c3cccc(OCc4ccc(Cl)cc4F)n3)CC1)n2C[C@@H]1CCO1)C1CCOCC1 [Compound 153a, N-{2-[(4-{6-[(4-chloro-2-fluorophenyl)methoxy]pyridin-2-yl}piperidin-1-yl)methyl]-1-{[(2S)-oxetan-2-yl]methyl}-1H-1,3-benzodiazol-5-yl}oxane-4-carboxamide]
0.069 | CC1(c2ccc(Cl)cc2F)Oc2cccc(C3CCN(Cc4nc5cc(-c6nnc(C(F)(F)F)[nH]6)cnc5n4CC4(C#N)CC4)CC3)c2O1 (stereo not shown) [Compound 254a, 1-{[2-({4-[2-(4-chloro-2-fluorophenyl)-2-methyl-2H-1,3-benzodioxol-4-yl]piperidin-1-yl}methyl)-6-[5-(trifluoromethyl)-4H-1,2,4-triazol-3-yl]-3H-imidazo[4,5-b]pyridin-3-yl]methyl}cyclopropane-1-carbonitrile]
0.31 | O=C(Nc1ccc2c(c1)nc(CN1CCC(c3cccc(OCc4ccc(Cl)cc4F)n3)CC1)n2C[C@@H]1CCO1)C1COCCO1 (stereo partly drawn) [Compound 172a, N-{2-[(4-{6-[(4-chloro-2-fluorophenyl)methoxy]pyridin-2-yl}piperidin-1-yl)methyl]-1-{[(2S)-oxetan-2-yl]methyl}-1H-1,3-benzodiazol-5-yl}-1,4-dioxane-2-carboxamide]
1.6 | CC1(c2ccc(Cl)cc2F)Oc2cccc(C3CCN(Cc4nc5cc(-c6n[nH]c(=O)o6)ccc5n4C[C@@H]4CCO4)CC3)c2O1 (stereo partly drawn) [Compound 219a, 5-[2-({4-[2-(4-chloro-2-fluorophenyl)-2-methyl-2H-1,3-benzodioxol-4-yl]piperidin-1-yl}methyl)-1-{[(2S)-oxetan-2-yl]methyl}-1H-1,3-benzodiazol-5-yl]-2,3-dihydro-1,3,4-oxadiazol-2-one]
0.26 | Fc1cc(Cl)ccc1COc1cccc(C2=CCN(Cc3nc4cc(-c5nnc(C(F)(F)F)[nH]5)ncc4n3C[C@@H]3CCO3)CC2)c1 [Compound 307a, 4-{3-[(4-chloro-2-fluorophenyl)methoxy]phenyl}-1-[(3-{[(2S)-oxetan-2-yl]methyl}-6-[5-(trifluoromethyl)-4H-1,2,4-triazol-3-yl]-3H-imidazo[4,5-c]pyridin-2-yl)methyl]-1,2,3,6-tetrahydropyridine]
0.26 | O=c1[nH]c(-c2cc3nc(CN4CC=C(c5ccc(F)c(OCc6ccc(Cl)cc6F)c5)CC4)n(C[C@@H]4CCO4)c3cn2)no1 [Compound 299a, 3-{2-[(4-{3-[(4-chloro-2-fluorophenyl)methoxy]-4-fluorophenyl}-1,2,3,6-tetrahydropyridin-1-yl)methyl]-3-{[(2S)-oxetan-2-yl]methyl}-3H-imidazo[4,5-c]pyridin-6-yl}-4,5-dihydro-1,2,4-oxadiazol-5-one]
0.82 | O=C(Nc1ccc2c(c1)nc(CN1CCC(c3cccc(OCc4ccc(Cl)cc4F)n3)CC1)n2C[C@@H]1CCO1)C1COCCC1(F)F (stereo partly drawn) [Compound 189a, N-{2-[(4-{6-[(4-chloro-2-fluorophenyl)methoxy]pyridin-2-yl}piperidin-1-yl)methyl]-1-{[(2S)-oxetan-2-yl]methyl}-1H-1,3-benzodiazol-5-yl}-4,4-difluorooxane-3-carboxamide]
0.012 | C[C@]1(c2ccc(Cl)cc2F)Oc2cccc(C3CCN(Cc4nc5cc(-c6nnc(C(F)(F)F)[nH]6)ncc5n4C[C@@H]4CCO4)CC3)c2O1 [Compound 366a, 4-[(2S)-2-(4-chloro-2-fluorophenyl)-2-methyl-2H-1,3-benzodioxol-4-yl]-1-[(3-{[(2S)-oxetan-2-yl]methyl}-6-[5-(trifluoromethyl)-4H-1,2,4-triazol-3-yl]-3H-imidazo[4,5-c]pyridin-2-yl)methyl]piperidine]
0.41 | C[C@]1(c2ccc(Cl)cc2F)Oc2cccc(C3CCN(Cc4nc5cc(-c6nnc(C(F)(F)F)[nH]6)nnc5n4C[C@H]4CCOC4)CC3)c2O1 [Compound 475a, 4-[(2S)-2-(4-chloro-2-fluorophenyl)-2-methyl-2H-1,3-benzodioxol-4-yl]-1-[(7-{[(3R)-oxolan-3-yl]methyl}-3-[5-(trifluoromethyl)-4H-1,2,4-triazol-3-yl]-7H-imidazo[4,5-c]pyridazin-6-yl)methyl]piperidine]
2.8 | Cn1nc(-c2ccc3c(c2)nc(CN2CCC(c4cccc5c4OC(C)(c4ccc(Cl)cc4F)O5)CC2)n3C[C@@H]2CCO2)oc1=O (stereo partly drawn) [Compound 220a, 5-[2-({4-[2-(4-chloro-2-fluorophenyl)-2-methyl-2H-1,3-benzodioxol-4-yl]piperidin-1-yl}methyl)-1-{[(2S)-oxetan-2-yl]methyl}-1H-1,3-benzodiazol-5-yl]-3-methyl-2,3-dihydro-1,3,4-oxadiazol-2-one]
3.6 | Fc1cc(Cl)ccc1COc1cccc(C2CCN(Cc3nc4cc(-n5cc(C6CCCOC6)nn5)ccc4n3C[C@@H]3CCO3)CC2)n1 (stereo partly drawn) [Compound 211a, 2-[(4-{6-[(4-chloro-2-fluorophenyl)methoxy]pyridin-2-yl}piperidin-1-yl)methyl]-5-[4-(oxan-3-yl)-1H-1,2,3-triazol-1-yl]-1-{[(2S)-oxetan-2-yl]methyl}-1H-1,3-benzodiazole]
4.3 | O=C(Nc1ccc2c(c1)nc(CN1CCC(c3cccc(OCc4ccc(Cl)cc4F)n3)CC1)n2C[C@@H]1CCO1)C1CCC2(CCC2)CO1 (stereo partly drawn) [Compound 197a, N-{2-[(4-{6-[(4-chloro-2-fluorophenyl)methoxy]pyridin-2-yl}piperidin-1-yl)methyl]-1-{[(2S)-oxetan-2-yl]methyl}-1H-1,3-benzodiazol-5-yl}-6-oxaspiro[3.5]nonane-7-carboxamide]
6 | CN1CCCC(C(=O)Nc2ccc3c(c2)nc(CN2CCC(c4cccc(OCc5ccc(Cl)cc5F)n4)CC2)n3C[C@@H]2CCO2)C1 (stereo partly drawn) [Compound 202a, N-{2-[(4-{6-[(4-chloro-2-fluorophenyl)methoxy]pyridin-2-yl}piperidin-1-yl)methyl]-1-{[(2S)-oxetan-2-yl]methyl}-1H-1,3-benzodiazol-5-yl}-1-methylpiperidine-3-carboxamide]
0.83 | O=C(O)c1ccc2c(c1)nc(CN1CCC(c3cccc(OCc4ccc(Cl)cc4F)n3)CC1)n2C[C@@H]1CCO1 [Compound 213a, 2-[(4-{6-[(4-chloro-2-fluorophenyl)methoxy]pyridin-2-yl}piperidin-1-yl)methyl]-1-{[(2S)-oxetan-2-yl]methyl}-1H-1,3-benzodiazole-5-carboxylic acid]
0.085 | Fc1cc(Cl)ccc1COc1cc(N2CCN(Cc3nc4cc(-c5nnc(C(F)(F)F)[nH]5)ncc4n3C[C@@H]3CCO3)CC2)ccc1F [Compound 456a, 1-{3-[(4-chloro-2-fluorophenyl)methoxy]-4-fluorophenyl}-4-[(3-{[(2S)-oxetan-2-yl]methyl}-6-[5-(trifluoromethyl)-4H-1,2,4-triazol-3-yl]-3H-imidazo[4,5-c]pyridin-2-yl)methyl]piperazine]
0.092 | Fc1cc(Cl)ccc1COc1ccc(F)c(N2CCN(Cc3nc4cc(-c5nnc(C(F)(F)F)[nH]5)nnc4n3C[C@@H]3CCO3)CC2)n1 [Compound 502a, 1-{6-[(4-chloro-2-fluorophenyl)methoxy]-3-fluoropyridin-2-yl}-4-[(7-{[(2S)-oxetan-2-yl]methyl}-3-[5-(trifluoromethyl)-4H-1,2,4-triazol-3-yl]-7H-imidazo[4,5-c]pyridazin-6-yl)methyl]piperazine]

Source: patent publication US20230391760A1, “HETEROCYCLIC GLP-1 AGONISTS” (Gasherbrum Bio, Inc., priority 2020, published 2023)
